Measured values reported in the supplement of paper PMC4862054.

Legend:
Details in all cases: incubation time: 72 h
[1] = tested on: SK-BR-3; assay: normalised response (% of control), CellTiter-Glo; higher = more viable cells (100 = DMSO, 0 = benzethonium chloride kill control)
In short: (§1)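 Each value is the plate-normalised signal at one concentration of the series. Breast cancer cell lines (20 µl suspension) were incubated 72 h in 384-well plates with compound at 5 concentrations in 10-fold steps over a compound-specific 10,000-fold range. CellTox Green and then CellTiter-Glo were read, and each plate was scaled to 0.1 % DMSO (100) and a positive kill control (0).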

[2] = tested on: HDQ-P1; assay: as above
In short: as §1

[3] = tested on: CAL-120; assay: as above
In short: as §1

[4] = tested on: BT-474; assay: as above
In short: as §1

[5] = tested on: MCF-10A; assay: as above
In short: as §1

[6] = tested on: MFM-223; assay: as above
In short: as §1

[7] = tested on: MDA-MB-436; assay: as above
In short: as §1

[8] = tested on: Hs578T; assay: as above
In short: as §1

[9] = tested on: DU-4475; assay: as above
In short: as §1

[10] = tested on: CAL-85-1; assay: as above
In short: as §1

[11] = tested on: MDA-MB-468; assay: as above
In short: as §1

[12] = tested on: MDA-MB-231; assay: as above
In short: as §1

[13] = tested on: HCC1937; assay: as above
In short: as §1

[14] = tested on: MDA-MB-453; assay: as above
In short: as §1

[15] = tested on: HCC1143; assay: as above
In short: as §1

[16] = tested on: BT-549; assay: as above
In short: as §1

[17] = tested on: CAL-148; assay: as above
In short: as §1

[18] = tested on: HCC1599; assay: as above
In short: as §1

[19] = tested on: CAL-51; assay: as above
In short: as §1

[20] = tested on: HDQ-P1; assay: normalised response (% of control), CellTox Green; higher = less cell death (100 = DMSO, 0 = benzethonium chloride kill control)
In short: as §1

[21] = tested on: CAL-120; assay: as above
In short: as §1

[22] = tested on: BT-474; assay: as above
In short: as §1

[23] = tested on: MCF-10A; assay: as above
In short: as §1

[24] = tested on: MFM-223; assay: as above
In short: as §1

[25] = tested on: MDA-MB-436; assay: as above
In short: as §1

[26] = tested on: Hs578T; assay: as above
In short: as §1

[27] = tested on: DU-4475; assay: as above
In short: as §1

[28] = tested on: CAL-85-1; assay: as above
In short: as §1

[29] = tested on: MDA-MB-468; assay: as above
In short: as §1

[30] = tested on: MDA-MB-231; assay: as above
In short: as §1

[31] = tested on: HCC1937; assay: as above
In short: as §1

[32] = tested on: MDA-MB-453; assay: as above
In short: as §1

[33] = tested on: HCC1143; assay: as above
In short: as §1

[34] = tested on: BT-549; assay: as above
In short: as §1

[35] = tested on: CAL-148; assay: as above
In short: as §1

[36] = tested on: HCC1599; assay: as above
In short: as §1

[37] = tested on: CAL-51; assay: as above
In short: as §1

Row | SMILES | normalised response [1] [%] | normalised response [2] [%] | normalised response [3] [%] | normalised response [4] [%] | normalised response [5] [%] | normalised response [6] [%] | normalised response [7] [%] | normalised response [8] [%] | normalised response [9] [%] | normalised response [10] [%] | normalised response [11] [%] | normalised response [12] [%] | normalised response [13] [%] | normalised response [14] [%] | normalised response [15] [%] | normalised response [16] [%] | normalised response [17] [%] | normalised response [18] [%] | normalised response [19] [%] | normalised response [20] [%] | normalised response [21] [%] | normalised response [22] [%] | normalised response [23] [%] | normalised response [24] [%] | normalised response [25] [%] | normalised response [26] [%] | normalised response [27] [%] | normalised response [28] [%] | normalised response [29] [%] | normalised response [30] [%] | normalised response [31] [%] | normalised response [32] [%] | normalised response [33] [%] | normalised response [34] [%] | normalised response [35] [%] | normalised response [36] [%] | normalised response [37] [%]
1 | CN(C)C(=N)NC(=N)N [Metformin] (10000 nM) | 77.8 | 97.2 | 106 | 91 | 87.7 | 92.4 | 101 | 98.9 | 79.5 | 102 | 92.7 | 93.5 | 99.5 | 80.3 | 93.6 | 98.4 | 98.3 | 108 | 75.2 | 101 | 88.3 | 95 | 103 | 99.2 | 55.5 | 83.7 | 89.4 | 98 | 79.5 | 90.4 | 66.8 | 80.9 | 72.2 | 76.2 | 97.9 | 82.2 | 66.7
2 | CN(Cc1cnc2nc(N)nc(N)c2n1)c1ccc(C(=O)N[C@@H](CCC(=O)O)C(=O)O)cc1 [Methotrexate] (5000 nM) | 115 | 51.3 | 21.1 | 78.1 | 107 | 104 | 81.5 | 110 | 102 | 51.4 | 99.4 | 77.5 | 31.3 | 110 | 83.5 | 97.8 | 100 | 97.9 | 56.8 | 107 | 98.9 | 102 | 107 | 97.5 | 97.6 | 102 | 102 | 102 | 129 | 116 | 110 | 107 | 109 | 125 | 100 | 98.8 | 115
3 | CC(C)n1cnc2c(NCCc3ccc(O)cc3)nc(-c3csc4ccccc34)nc21 [StemRegenin 1] (1000 nM) | 96.5 | 89.6 | 99.9 | 108 | 94 | 93.8 | 100 | 105 | 103 | 98.8 | 100 | 110 | 95.4 | 102 | 110 | 77.9 | 99.3 | 111 | 121 | 102 | 104 | 100 | 83.1 | 81.1 | 110 | 88.4 | 107 | 118 | 137 | 114 | 89.9 | 110 | 119 | -112 | 85.1 | 96 | 118
4 | CCN(CC)CCCC(C)Nc1ccnc2cc(Cl)ccc12 (configuration not stated) [Chloroquine] (10000 nM) | 35.2 | 86.2 | 50.6 | 72.1 | 74.2 | 62.9 | 77.3 | 97.4 | 80.1 | 57.7 | 57.4 | 73.9 | 65.7 | 28.8 | 89.6 | 73.3 | 60.2 | 65.3 | 51.7 | 81.6 | -30.1 | 35.4 | 95.2 | 67.7 | 59.4 | 94.3 | 96.2 | 93 | 119 | 50.4 | 91.5 | 62.1 | 110 | 93.2 | 35.5 | 86.2 | 91.5
5 | O=C(O)CNC(=O)c1c(O)c2ccccc2n(Cc2ccccc2)c1=O [IOX-2] (5000 nM) | 99.7 | 100 | 101 | 95.7 | 104 | 97.7 | 96.7 | 100 | 99.3 | 96.9 | 106 | 91.3 | 93.3 | 93.1 | 103 | 96.2 | 100 | 114 | 85.1 | 105 | 98.4 | 100 | 84.6 | – | 93.2 | 58.2 | 103 | 104 | 57.3 | 66.4 | 114 | 110 | 97.1 | 72.8 | 98.5 | 98.2 | 94.9
6 | CCn1c(C(=O)N(C2CC2)C2CC2)cc2c3c(ncn3C)c(Nc3cc(C)n(C)n3)nc21 (1000 nM) | 101 | 98.8 | 96.4 | 92.7 | 99.9 | 95.2 | 105 | 95.8 | 97.2 | 99.5 | 85.4 | 92.5 | 101 | 92.7 | 103 | 98.2 | 96.6 | 124 | 70.1 | 96.2 | 96.2 | 98.8 | 117 | 98.5 | 98.2 | 93 | 103 | 102 | 95.6 | 102 | 120 | 104 | 106 | 94.2 | 87.1 | 89.3 | 98.2
7 | O=[N+]([O-])c1ccc2c(c1)S(=O)(=O)C=C2 [Stattic] (5000 nM) | 80.9 | 92.2 | 88.3 | 68.9 | 105 | 22.8 | 75.7 | 29.6 | 101 | 1.59 | 2.23 | 30.9 | 22.3 | 45 | 93.1 | 0.47 | 46.4 | 86.9 | 0.16 | 106 | 105 | 12.7 | – | 4.35 | 106 | -141 | 104 | -36.1 | -175 | 51.2 | 28.6 | 108 | 118 | -67.2 | 51.2 | 95.2 | -12.3
